The values that follow come from patent US20230348394A1, “COMPOSITIONS AND METHODS FOR TREATING MUSCULAR DYSTROPHIES” (The Regents of the University of California, priority 2020, published 2023).

Assay [1] relates to alpha-dystroglycan (α-DG) at the cell surface. Briefly: Cell surface protein biotinylation and immunoblot, C2C12 myotubes. Format: cell-based, murine. As to conditions: 5 μM, 48 hours. The procedure: Myotubes treated for 48 hrs were lysed using RIPA buffer (Thermo Fisher Scientific) containing Halt Protease Inhibitor Cocktail (Thermo Fisher Scientific). Cell lysates in RIPA buffer were rocked for 1 hr at 4° C. and centrifuged at 1,000 RPM for 30 mins at 4° C. The supernatant was collected, quantified for protein concentration using the DC protein assay (Bio-Rad), and normalized to 2 mg/ml in water and Laemmli sample buffer with a final concentration of 10% glycerol (Sigma-Aldrich), 5% beta-mercaptoethanol (Sigma-Aldrich), 3% sodium dodecyl sulfate (Sigma-Aldrich), and 0.05% bromophenol blue (Sigma-Aldrich). For SDS-PAGE, samples were heated to 95° C. for 2 mins before loading 40 μg onto 4-12% tris-glycine or bis-tris polyacrylamide gels (Novex), electrophoresed for 2 hrs at 100 volts at RT, and transferred to a nitrocellulose membrane for 2 hrs at 100 volts at 4° C. Ponceau S staining was performed to visualize protein loading and verify protein transfer. […] Autoradiography films were developed using a SRX-101A tabletop processor (Konica Minolta), scanned to a digital file, and analyzed by densitometry of bands using ImageJ version 1.51 s. […]
For orientation: In western blotting, separated proteins are transferred to a membrane and probed.

A further assay concerns SSPN mRNA. Kind of assay: siRNA-mediated knockdown of SSPN in mdx myotubes, SSPN mRNA. Format: cell-based, murine. The procedure: RNA from myotubes treated for 48 hrs was extracted from cells using Trizol-based (Thermo Fisher Scientific) phase separation, Chomczynski et al., Biotechniques. 1993; 15(3):532-4, 6-7. RNA concentrations were determined using a NanoDrop 1000 (Thermo Fisher Scientific) and 750 ng of RNA in a 20 Id reaction was reverse transcribed using iScript cDNA synthesis (Bio-Rad) with the following cycling conditions: 25° C. for 5 mins, 42° C. for 30 mins, 85° C. for 5 mins. For mouse qPCR, SsoFast EvaGreen Supermix (Bio-Rad), 400 nM of each optimized forward and reverse primer (SSPN F: 5′ […] 3′, SSPN R: 5′ […] 3′, BACT F: 5′ […] 3′, BACT R: 5′ […] 3′), and cDNA corresponding to 37.5 ng RNA were used to amplify cDNA measured by QuantStudio 5 Real-Time PCR System (Thermo Fisher Scientific) with the following reaction conditions: 55° C. for 2 mins, 95° C. for 2 mins, 40 cycles of 95° C. for 10 seconds and 62° C. for 30 seconds, and dissociation stage. For qPCR of human samples, TaqMan assays were used to quantify SSPN (assay ID Hs01025520m 1) and ACTB (assay ID Hs01060665_g1) with the following reaction conditions: 50° C. for 2 mins, 95° C. for 10 mins, 40 cycles of 95° C. for 15 seconds and 62° C. for 1 minute. […] Data was analyzed using the ddCT method and normalized to reference gene ACTB with vehicle-treated samples serving as the calibrator (relative expression of vehicle control=1). […]

Each structure is given as a SMILES string.

For the compound `CCN(CC)c1ccc2cc(C(=O)Nc3ccc(C(=O)N4CCCCCC4)cc3)c(=O)oc2c1` [OT-9], in assay [1], the “increase of core α-DG at the cell surface” value is on record as 1.6 fold and the “increase of glycosylated α-DG at the cell surface” value stood at 1.8 fold. The “SSPN mRNA levels under SSPN knockdown” value with SSPN mRNA (24 nM SSPN siRNA plus OT-9) is “increased SSPN mRNA levels”. The “increase of SSPN mRNA relative to the vehicle control” value in the assay on SSPN mRNA (24 nM scramble siRNA plus 1, 5 or 10 μM OT-9) is reported as “up to 1.4 fold”.
